The text below walks through data of US9908895B2, “Tricyclic fused thiophene derivatives as JAK inhibitors” (Incyte Corporation, priority 2012, dated 2018).

The assay deals with human JAK1. Description: In vitro JAK kinase assay (HTRF), JAK1. The assay is classed as biochemical. Conditions: ratio of JAK2 IC50 to JAK1 IC50 at 1 mM ATP. The procedure: Compounds herein were tested for inhibitory activity of JAK targets according to the following in vitro assay described in Park et al., Analytical Biochemistry 1999, 269, 94-104. The catalytic domains of human JAK1 (a.a. 837-1142), JAK2 (a.a. 828-1132) and JAK3 (a.a. 781-1124) were expressed using baculovirus in insect cells and purified. The catalytic activity of JAK1, JAK2 or JAK3 was assayed by measuring the phosphorylation of a biotinylated peptide. The phosphorylated peptide was detected by homogenous time resolved fluorescence (HTRF). IC50s of compounds were measured for each kinase in the 40 μL reactions that contain the enzyme, ATP and 500 nM peptide in 50 mM Tris (pH 7.8) buffer with 100 mM NaCl, 5 mM DTT, and 0.1 mg/mL (0.01%) BSA. For the 1 mM IC50 measurements, ATP concentration in the reactions was 1 mM. Reactions were carried out at room temperature for 1 hour and then stopped with 20 μL 45 mM EDTA, 300 nM SA-APC, 6 nM Eu-Py20 in assay buffer (Perkin Elmer, Boston, Mass.). Binding to the Europium labeled antibody took place for 40 minutes and HTRF signal was measured on a PHERA star plate reader (BMG, Cary, N.C.). The Example compounds were each tested in the Example A assay (see Table 1 for data for the compounds of the examples as tested by the assay of Example A at 1 mM ATP).
`CCc1nc2cnc3ccsc3c2n1[C@@H]1CC[C@@H](CC#N)[C@@H](O)C1` (mixture of isomers) [Example 35]: the JAK2/JAK1 is above 10.

Consider `C[C@@H](O)c1nc2cnc3ccsc3c2n1C1CCC(O)(CC#N)CC1` (single isomer, unassigned) [24 (first peak)], for which the JAK2/JAK1 was above 10.

As to `C[C@@H](O)c1nc2cnc3ccsc3c2n1C1CCC(NCCC#N)CC1` (single isomer, unassigned) [30 (first peak)], the JAK2/JAK1 was above 2.

As for `C[C@@H](O)c1nc2cnc3ccsc3c2n1C1CCC(NCCC#N)CC1` (single isomer, unassigned) [30 (second peak)], the JAK2/JAK1 was above 10.

For `N#CCC1CCC(CO)(n2cnc3cnc4ccsc4c32)CC1` (single isomer, unassigned) [72 (second peak), [4-(Hydroxymethyl)-4-(1H-imidazo[4,5-d]thieno[3,2-b]pyridin-1-yl)cyclohexyl]acetonitrile], the JAK2/JAK1 is given as above 5.

Turning to `C[C@@H](O)c1nc2cnc3ccsc3c2n1[C@H]1CCCOC1` [Example 1, (1R)-1-{1-[(3S)-Tetrahydro-2H-pyran-3-yl]-1H-imidazo[4,5-d]thieno[3,2-b]pyridin-2-yl}ethanol], the JAK2/JAK1 was above 3.

On to `C[C@@H](O)c1nc2cnc3ccsc3c2n1[C@H]1CC[C@H](CC#N)CC1` [Example 2, (trans-4-{2-[(1R)-1-Hydroxyethyl]-1H-imidazo[4,5-d]thieno[3,2-b]pyridin-1-yl}cyclohexyl)acetonitrile], for which the JAK2/JAK1 is above 10.

In the case of `C[C@@H](O)c1nc2cnc3ccsc3c2n1[C@H]1CC[C@H](O)CC1` [Example 3, trans-4-{2-[(1R)-1-Hydroxyethyl]-1H-imidazo[4,5-d]thieno[3,2-b]pyridin-1-yl}cyclohexanol], the JAK2/JAK1 is given as above 10.

Consider `C[C@@H](O)c1nc2cnc3ccsc3c2n1[C@H]1CC[C@H](NCC(F)(F)F)CC1` [Example 4, (1R)-1-(1-{trans-4-[(2,2,2-Trifluoroethyl)amino]cyclohexyl}-1H-imidazo[4,5-d]thieno[3,2-b]pyridin-2-yl)ethanol], for which the JAK2/JAK1 is given as above 10.

In the case of `C[C@@H](O)c1nc2cnc3ccsc3c2n1[C@H]1CC[C@H](CCS(C)(=O)=O)CC1` [Example 5, (1R)-1-(1-{trans-4-[2-(Methylsulfonyl)ethyl]cyclohexyl}-1H-imidazo[4,5-d]thieno[3,2-b]pyridin-2-yl)ethanol], the JAK2/JAK1 is recorded as above 10.

Consider `C[C@@H](O)c1nc2cnc3ccsc3c2n1[C@H]1CC[C@@H](n2cncn2)CC1` [Example 6, (1R)-1-{1-[cis-4-(1H-1,2,4-Triazol-1-yl)cyclohexyl]-1H-imidazo[4,5-d]thieno[3,2-b]pyridin-2-yl}ethanol], for which the JAK2/JAK1 was above 6.

As to `C[C@@H](O)c1nc2cnc3ccsc3c2n1[C@H]1CC[C@@H](C#N)CC1` [Example 7, cis-4-{2-[(1R)-1-Hydroxyethyl]-1H-imidazo[4,5-d]thieno[3,2-b]pyridin-1-yl}cyclohexanecarbonitrile], the JAK2/JAK1 is above 10.

As for `C[C@@H](O)c1nc2cnc3ccsc3c2n1[C@H]1CC[C@H](CCC#N)CC1` [Example 8, 3-(trans-4-{2-[(1R)-1-Hydroxyethyl]-1H-imidazo[4,5-d]thieno[3,2-b]pyridin-1-yl}cyclohexyl)propanenitrile], the JAK2/JAK1 is above 10.

On to `C[C@@H](O)c1nc2cnc3ccsc3c2n1[C@H]1CC[C@H](CC#N)CC1.Cl` [Example 10, (trans-4-{2-[(1R)-1-Hydroxyethyl]-1H-imidazo[4,5-d]thieno[3,2-b]pyridin-1-yl}cyclohexyl)acetonitrile HCl salt], for which the JAK2/JAK1 was above 10.

For the compound `C[C@@H](O)c1nc2cnc3ccsc3c2n1[C@H]1CC[C@H](CO)CC1` [Example 11, (1R)-1-{1-[trans-4-(Hydroxymethyl)cyclohexyl]-1H-imidazo[4,5-d]thieno[3,2-b]pyridin-2-yl}ethanol], the JAK2/JAK1 is above 10.

Consider `C[C@@H](O)c1nc2cnc3ccsc3c2n1[C@H]1CC[C@H](CF)CC1` [Example 12, (1R)-1-{1-[trans-4-(Fluoromethyl)cyclohexyl]-1H-imidazo[4,5-d]thieno[3,2-b]pyridin-2-yl}ethanol], for which the JAK2/JAK1 is recorded as above 10.

Turning to `C[C@@H](O)c1nc2cnc3ccsc3c2n1C1CCCCC1` [Example 13, (1R)-1-(1-Cyclohexyl-1H-imidazo[4,5-d]thieno[3,2-b]pyridin-2-yl)ethanol], the JAK2/JAK1 is reported as above 10.

As to `CNS(=O)(=O)C[C@H]1CC[C@H](n2c([C@@H](C)O)nc3cnc4ccsc4c32)CC1` [Example 14, 1-(trans-4-{2-[(1R)-1-hydroxyethyl]-1H-imidazo[4,5-d]thieno[3,2-b]pyridin-1-yl}cyclohexyl)-N-methylmethanesulfonamide], the JAK2/JAK1 was above 5.

With `C[C@@H](O)c1nc2cnc3ccsc3c2n1C1CCN(CC(F)(F)F)CC1` [Example 15, (1R)-1-{1-[1-(2,2,2-Trifluoroethyl)piperidin-4-yl]-1H-imidazo[4,5-d]thieno[3,2-b]pyridin-2-yl}ethanol], the JAK2/JAK1 was above 9.

As for `C[C@@H](O)c1nc2cnc3ccsc3c2n1C1CCN(CCC#N)CC1` [Example 16, 3-(4-{2-[(1R)-1-Hydroxyethyl]-1H-imidazo[4,5-d]thieno[3,2-b]pyridin-1-yl}piperidin-1-yl)propanenitrile], the JAK2/JAK1 is above 10.

Turning to `N#CC[C@H]1CC[C@H](n2c(CO)nc3cnc4ccsc4c32)CC1` [Example 17, {trans-4-[2-(Hydroxymethyl)-1H-imidazo[4,5-d]thieno[3,2-b]pyridin-1-yl]cyclohexyl}acetonitrile], the JAK2/JAK1 is on record as above 10.

In the case of `CS(=O)(=O)NCc1nc2cnc3ccsc3c2n1[C@H]1CC[C@H](CC#N)CC1` [Example 18, N-({1-[trans-4-(Cyanomethyl)cyclohexyl]-1H-imidazo[4,5-d]thieno[3,2-b]pyridin-2-yl}methyl)methanesulfonamide], the JAK2/JAK1 is above 10.

On to `C[C@@H](O)c1nc2cnc3ccsc3c2n1[C@H]1CCC(CO)OC1` (stereo partly drawn) [Example 19, (1R)-1-{1-[(3S)-6-(Hydroxymethyl)tetrahydro-2H-pyran-3-yl]-1H-imidazo[4,5-d]thieno[3,2-b]pyridin-2-yl}ethanol], for which the JAK2/JAK1 is above 10.

As to `C[C@@H](O)c1nc2cnc3ccsc3c2n1[C@H]1CC[C@H](CC#N)OC1` [Example 20, ((2R,5S)-5-{2-[(1R)-1-Hydroxyethyl]-1H-imidazo[4,5-d]thieno[3,2-b]pyridin-1-yl}tetrahydro-2H-pyran-2-yl)acetonitrile], the JAK2/JAK1 was above 10.

`C[C@@H](O)c1nc2cnc3ccsc3c2n1[C@H]1CC[C@@H](CC#N)OC1` [Example 21, ((2S,5S)-5-{2-[(1R)-1-Hydroxyethyl]-1H-imidazo[4,5-d]thieno[3,2-b]pyridin-1-yl}tetrahydro-2H-pyran-2-yl)acetonitrile]: the JAK2/JAK1 was above 10.

Regarding `CS(=O)(=O)NCc1nc2cnc3ccsc3c2n1[C@H]1CC2CCC1C2` (stereo partly drawn) [Example 22, N-((1-((2S)-Bicyclo[2.2.1]heptan-2-yl)-1H-imidazo[4,5-d]thieno[3,2-b]pyridin-2-yl)methyl)methanesulfonamide], the JAK2/JAK1 is recorded as above 4.
